Results: paper PMC8802806, “Synthesis and Antitumor Activity of Erlotinib Derivatives Linked With 1,2,3-Triazole” (Frontiers in Pharmacology, 2022)
Where two headings read alike, the source gives them in different places.

What was measured:
HeLa cells = assay: Cell antiproliferative activity assay (CCK8); type: cell-based, human; details: Homo sapiens; for inhibition at 0.25 µM: 250 nM; for inhibition at 0.5 µM: 500 nM; for inhibition at 1 µM: 1000 nM; for inhibition at 2 µM: 2000 nM; for inhibition at 4 µM: 4000 nM; for inhibition at 8 µM: 8000 nM; for inhibition at 16 µM: 16000 nM
Description: Cell antiproliferative activity was evaluated by the Cell Counting Kit-8 (CCK8, DOJINDO, Japan) assay. The cells were seeded at a density of 2,000 cells per well into 96-well microplate in 100 μl of growth medium. Cells were incubated at 37°C and 5% CO2 overnight. The next day, 100 μl per well of diluted inhibitor in growth medium was added with the final concentration from 0.1 nM to 100 μM. The cells were treated with DMSO as control. A series of dilutions are made in 0.1% DMSO in assay medium so that the final concentration of DMSO is 0.1% in all of treatments. Cells were incubated at 37°C and 5% CO2 for 48 h. Then, 10 μl of CCK8 was added to each well. The plates were incubated at 37°C for 2 h; after that, the plates were recorded by measuring absorbance at 450 nm with the reference wavelength of 630 nm using an EnVision Multilabel Reader (PerkinElmer). The IC50 values were calculated using GraphPad Prism 6.0 software and determined by the concentration causing a half-maximal percent activity. All assays were conducted with three parallel samples and three repetitions.

[1] = HeLa, 48 h, HeLa cells, CCK8, 48 h, mean ± SD, n = 3, read-out: IC50 (μM) HeLa
[2] = HeLa, HELA 2000cells/well, supplement DataSheet2, Repeat1, read-out: IC50 Repeat1
[3] = HeLa, HELA 2000cells/well, supplement DataSheet2, Repeat 2, read-out: IC50 Repeat 2
[4] = HeLa, HELA 2000cells/well, supplement DataSheet2, mean of two repeats ± SD, read-out: IC50 mean±SD
[5] = HELA 2000cells/well, Repeat1, read-out: Inhibition (%) Repeat1
[6] = HELA 2000cells/well, Repeat2, read-out: Inhibition (%) Repeat2

Row | Structure (SMILES) | melting point [°C] | IC50 (HeLa cells; [1]) [µM] | IC50 (HeLa cells; [2]) [µM] | IC50 (HeLa cells; [3]) [µM] | IC50 (HeLa cells; [4]) [µM] | inhibition at 0.25 µM (HeLa cells; [5]) [%] | inhibition at 0.25 µM (HeLa cells; [6]) [%] | inhibition at 0.5 µM (HeLa cells; [5]) [%] | inhibition at 0.5 µM (HeLa cells; [6]) [%] | inhibition at 1 µM (HeLa cells; [5]) [%] | inhibition at 1 µM (HeLa cells; [6]) [%] | inhibition at 2 µM (HeLa cells; [5]) [%] | inhibition at 2 µM (HeLa cells; [6]) [%] | inhibition at 4 µM (HeLa cells; [5]) [%] | inhibition at 4 µM (HeLa cells; [6]) [%] | inhibition at 8 µM (HeLa cells; [5]) [%] | inhibition at 8 µM (HeLa cells; [6]) [%] | inhibition at 16 µM (HeLa cells; [5]) [%] | inhibition at 16 µM (HeLa cells; [6]) [%] | IC50 (HeLa cells; HeLa cells, CCK8, 48 h, mean ± SD, n = 3, read-out: IC50 (μM) HeLa) [µM]
1 | COCCOc1cc2ncnc(Nc3cccc(-c4cn(-c5ccc(F)cc5)nn4)c3)c2cc1OCCOC [Compound 4g, [6,7-Bis-(2-methoxy-ethoxy)-quinazolin-4-yl]-{3-[1-(4-fluoro-phenyl)-1H-[1,2,3]triazol-4-yl]-phenyl}-amine] | 88 to 91 | 9.05 ± 0.53 | 8.57 | 9.64 | 9.06 ± 0.531 | 0 | 2.88 | 0.279 | 5.02 | 2.88 | 5.02 | 20.6 | 17.7 | 37.5 | 38.5 | 51.1 | 50.1 | 59.4 | 54.7 | –
2 | COCCOc1cc2ncnc(Nc3cccc(-c4cn(Cc5ccccc5)nn4)c3)c2cc1OCCOC [Compound 4a, [3-(1-Benzyl-1H-[1,2,3]triazol-4-yl)-phenyl]-[6,7-bis-(2-methoxy-ethoxy)-quinazolin-4-yl]-amine] | 89 to 92 | > 50 | – | – | – | 0 | 4.4 | 8.2 | 5.61 | 8.54 | 6.73 | 8.54 | 6.73 | 12.1 | 12.1 | 12.5 | 13.8 | 16.3 | 15.5 | –
3 | COCCOc1cc2ncnc(Nc3cccc(-c4cn(-c5ccc(Br)cc5)nn4)c3)c2cc1OCCOC [Compound 4j, [6,7-Bis-(2-methoxy-ethoxy)-quinazolin-4-yl]-{3-[1-(4-bromo-phenyl)-1H-[1,2,3]triazol-4-yl]-phenyl}-amine] | 105 to 108 | 12.2 ± 1 | 11.3 | 13.3 | 12.2 ± 1.01 | 0 | 2.88 | 0.0873 | 2.97 | 0.96 | 4.36 | 4.01 | 4.89 | 8.03 | 8.64 | 26.2 | 17.7 | 73.6 | 63.3 | –
4 | COCCOc1cc2ncnc(Nc3cccc(-c4cn(Cc5ccccc5Br)nn4)c3)c2cc1OCCOC [Compound 4c, [6,7-Bis-(2-methoxy-ethoxy)-quinazolin-4-yl]-{3-[1-(2-bromo-benzyl)-1H-[1,2,3]triazol-4-yl]-phenyl}-amine] | 94 to 97 | 21.3 ± 7.79 | 14.8 | 30.4 | – | 2.33 | 0 | 4.15 | 1.82 | 4.75 | 2.33 | 15.8 | 9.94 | 35.6 | 21.3 | 42.4 | 29.7 | 45 | 34.1 | –
5 | COCCOc1cc2ncnc(Nc3cccc(-c4cn(-c5cccc(OC)c5)nn4)c3)c2cc1OCCOC [Compound 4e, [6,7-Bis-(2-methoxy-ethoxy)-quinazolin-4-yl]-{3-[1-(3-methoxy-phenyl)-1H-[1,2,3]triazol-4-yl]-phenyl}-amine] | – | > 50 | – | – | – | 0.801 | 0 | 4.97 | 2.08 | 7.13 | 3.04 | 14.1 | 5.45 | 15 | 13.5 | 16.5 | 15.1 | 18.2 | 15.9 | –
6 | C#Cc1cccc(Nc2ncnc3cc(OCCOC)c(OCCOC)cc23)c1 [Erlotinib, erlotinib] | – | – | – | – | – | – | – | – | – | – | – | – | – | – | – | – | – | – | – | 39.5 ± 3.34
